Experimental data taken from ChEMBL document CHEMBL1201862, “PubChem BioAssay data set” (2004).
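All cell lines were grown in 96-well plates and treated with compound for 48 hours. GI50: concentration for 50% inhibition of growth.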 Active and inactive are the calls of the source. No stated cut-off is given here; in the data, active = GI50 up to about 1.1 µM and inactive = higher.

Tests used:
Assay in all cases: inhibition of tumour cell growth, NCI panel, 48 h
A498 = test system: A498
CCRF-CEM = test system: CCRF-CEM
HCT-15 = test system: HCT-15
HOP-92 = test system: HOP-92
IGROV-1 = test system: IGROV-1
KM12 = test system: KM12
LOX IMVI = test system: LOX IMVI
RXF 393 = test system: RXF 393
SK-MEL-2 = test system: SK-MEL-2
SK-MEL-5 = test system: SK-MEL-5
SK-OV-3 = test system: SK-OV-3
SR = test system: SR
SW-620 = test system: SW-620
TK-10 = test system: TK-10
UACC-257 = test system: UACC-257
UACC-62 = test system: UACC-62
DU-145 = test system: DU-145
PC-3 = test system: PC-3
T47D = test system: T47D

Row | Structure (SMILES) | GI50 (A498) | GI50 (CCRF-CEM) | GI50 (HCT-15) [µM] | GI50 (HOP-92) | GI50 (IGROV-1) | GI50 (KM12) | GI50 (LOX IMVI) | GI50 (RXF 393) | GI50 (SK-MEL-2) | GI50 (SK-MEL-5) | GI50 (SK-OV-3) | GI50 (SR) | GI50 (SW-620) | GI50 (TK-10) | GI50 (UACC-257) | GI50 (UACC-62) | GI50 (DU-145) | GI50 (PC-3) | GI50 (T47D)
1 | CC1=C(/C=C/C(C)=C/C=C/C(C)=C/C=C/C=C(C)/C=C/C=C(C)/C=C/C2=C(C)C(=O)C(O)CC2(C)C)C(C)(C)CC(O)C1=O (stereo not drawn) | > 100 µM (inactive) | > 100 µM (inactive) | > 100 | > 100 µM (inactive) | > 100 µM (inactive) | > 100 µM (inactive) | > 100 µM (inactive) | > 100 µM (inactive) | > 100 µM (inactive) | > 100 µM (inactive) | > 100 µM (inactive) | > 100 µM (inactive) | > 100 µM (inactive) | > 100 µM (inactive) | > 100 µM (inactive) | > 100 µM (inactive) | – | – | –
2 | c1ccc2c3nc(C4CCCC4)nc-3c(NC3CCCC3)[nH]c2c1 | 21.3 µM (inactive) | 5.89 µM (inactive) | 8.49 | 19.3 µM (inactive) | 20.3 µM (inactive) | 7.08 µM (inactive) | 15.8 µM (inactive) | 14.7 µM (inactive) | 14 µM (inactive) | 6.98 µM (inactive) | 32.1 µM (inactive) | 10.3 µM (inactive) | 5.43 µM (inactive) | 35.2 µM (inactive) | 5.94 µM (inactive) | 14 µM (inactive) | – | – | –
3 | CCOC(=O)/N=c1\ss/c(=N\C(=S)N(C)C)n1-c1ccccc1 | 4.42 µM (inactive) | 29.6 µM (inactive) | > 10 | 25.8 µM (inactive) | 4.11 µM (inactive) | 8.63 µM (inactive) | > 100 µM (inactive) | 1.07 µM (active) | 67.8 µM (inactive) | 2.62 µM (inactive) | > 10 µM (inactive) | 3.72 µM (inactive) | > 10 µM (inactive) | 63 µM (inactive) | > 10 µM (inactive) | 72.3 µM (inactive) | – | – | –
4 | CCSC1=N/C(=C\c2ccco2)C(=O)N1 | > 100 µM (inactive) | > 100 µM (inactive) | > 100 | 93.3 µM (inactive) | 74.8 µM (inactive) | > 100 µM (inactive) | > 100 µM (inactive) | – | > 100 µM (inactive) | > 100 µM (inactive) | > 100 µM (inactive) | > 100 µM (inactive) | > 100 µM (inactive) | > 100 µM (inactive) | – | > 100 µM (inactive) | > 100 µM (inactive) | > 100 µM (inactive) | –
5 | O=C(CCc1nnc(S)[nH]1)NC12CC3CC(CC(C3)C1)C2 | > 100 µM (inactive) | > 100 µM (inactive) | > 100 | > 100 µM (inactive) | > 100 µM (inactive) | > 100 µM (inactive) | > 100 µM (inactive) | > 100 µM (inactive) | > 100 µM (inactive) | > 100 µM (inactive) | > 100 µM (inactive) | 1 µM (active) | > 100 µM (inactive) | > 100 µM (inactive) | > 100 µM (inactive) | > 100 µM (inactive) | – | – | –
6 | CC(=O)c1nc(C#N)c(N)o1 | > 100 µM (inactive) | > 100 µM (inactive) | > 100 | > 100 µM (inactive) | > 100 µM (inactive) | > 100 µM (inactive) | > 100 µM (inactive) | > 100 µM (inactive) | > 100 µM (inactive) | – | > 100 µM (inactive) | – | > 100 µM (inactive) | > 100 µM (inactive) | > 100 µM (inactive) | > 100 µM (inactive) | > 100 µM (inactive) | > 100 µM (inactive) | > 100 µM (inactive)
7 | N#CCCC1(CCC#N)CCc2ccccc2C1=O | – | > 100 µM (inactive) | > 100 | – | > 100 µM (inactive) | > 100 µM (inactive) | > 100 µM (inactive) | – | > 100 µM (inactive) | > 100 µM (inactive) | > 100 µM (inactive) | > 100 µM (inactive) | > 100 µM (inactive) | > 100 µM (inactive) | > 100 µM (inactive) | > 100 µM (inactive) | > 100 µM (inactive) | > 100 µM (inactive) | > 100 µM (inactive)
